pIC50: −log10 of the molar value. Where two headings read alike, the source gives them in different places.
Key:
[1] = system: HT-29 xenograft; assay: Anti-tumor study in mice, HT-29 xenograft; assay type: in vivo
Description: (§1) Mice are acquired from Taconic Farms and are maintained in Microisolator cages at 72±2° F. with a 12 hour light/dark cycle. Animals are housed at 4 mice per cage (28×17×12 cm ) and are given food and water ad libitum. Animals are numbered through the use of an ear punch or tail tattoo. All animal handling is done in a laminar flow hood.
(§2) Solid tumors are measured by caliper measurement through the skin. Caliper measurements are typically made twice weekly. Tumor weight is calculated using the equation (length×width^2 /2)=mg tumor weight.
(§3) Compounds are prepared in a vehicle consisting of DMSO, Cremophore and PBS.
Drug therapy begins when the average tumor size is approximately 40-50 mg, which usually is day 7 after implant. The dose schedule consists of one dose/day for 5 consecutive days. Drugs are administered at 3 or 4 dose-levels based upon the previously-determined maximally tolerated dose. A vehicle control group is also included. Drugs may be administered by either i.v., i.p., s.c., or oral (p.o.) transdermal routes or other alternative routes. Drugs may be administered via tail vein infusion. The injection volume administered for each mouse is usually 0.01-0.02 mL/g of body weight. In the case of i.v. injections and tail vein infusion animals are restrained in a Broome restrainer during handling. Animal are fasted overnight prior to p.o. dosing. […]

[2] = target: T1, Human cRaf1 (Homo sapiens, UniProt P04049); assay: Raf kinase assay (cRaf1 assay / Raf/MEK cascade assay); assay type: biochemical
T1 construct: poly-histidine (C); made in house

[3] = system: SW620 (human colon carcinoma cell line); assay: Cell Based Efficacy (MTT Assay), SW620; conditions: SW-620, 72 hours with compound, 50% inhibitory concentration
Description: (§4) The potency of compounds of the invention are tested for their ability to inhibit cell proliferation and cell viability. The metabolic conversion of 3-(4,5-dimethylthiazol-2-yl)-2,5-diphenyltetrazolium bromide (MTT, Sigma #M2128) to a reduced form is a commonly used measure of cellular viability. Following is the procedure:
(§5) Cells are maintained in 75 cm^2 tissue culture flasks until ready for use. The cells are grown and plated for the assay in Dulbecco's modified Eagle's media containing 10% fetal bovine serum. For example, the following cell lines can be used: a) human foreskin fibroblasts (HFF), b) HT29 (human colon carcinoma cell line), c) MDA-MB-468 (human breast carcinoma cell line), d) RKO (human colon adenocarcinoma cell line), e) SW620 (human colon carcinoma cell line), f) A549 (human lung carcinoma cell line), and g) MIA PACA (human pancreatic carcinoma cell line). Cells are maintained at 37° C. in 10% CO2, 90% humidified air. Cells are plated in 96-well tissue culture plates at the densities listed below. 100 μL of cell suspension is added to each well of the 96-well plate except the top row of the plate which contains no cells and serves as a reference for the spectrophotometer. […]
(§6) Cells are incubated overnight in Dulbecco's modified Eagle's media containing 10% fetal bovine serum at 37° C. in 10% CO2, 90% humidified air prior to dosing. Cells are dosed in 10 sequential 3-fold dilutions starting at 30 uM depending upon the solubility of the compound. Compounds with solubilities of less than 30 uM are dosed at the highest soluble concentration. Stock solutions of compounds are made in 100% dimethyl sulfoxide (DMSO). Stock solutions are diluted in Dulbecco's modified Eagle's media containing 100 ug/mL gentamicin and 0.3 to 0.6% DMSO at the twice the highest concentration to be placed on the cells. If compounds have been dissolved in DMSO the final concentration of DMSO on the cells is kept below 0.3%. 3-fold serial dilutions are performed on each compound to prepare 10 concentrations of the compound for dosing. 100 μL of diluted compound is added to the 100 μL of media currently on the dish. For each concentration of compound, 2-4 replicate wells are prepared.
(§7) Cells are returned to incubator and allowed to proliferate in the presence of compound for 72 hours before addition of MTT. MTT is prepared in phosphate buffered saline (Irvine Scientific #9240) at a concentration of 2mg/mL. 50 μL per well of MTT solution is added to the 200 μL of media to yield a final concentration of 0.4 mg/mL and plates are returned to the incubator for 4 hours. After 4 hours incubation the media, compound and MTT mixture is aspirated from the plates and 100 μL of 100% DMSO is added to each well in addition to 25 μL of Sorenson's Buffer (0.1M glycine, 0.1M NaCl, pH 10.5). Quantitation of metabolic reduction of MTT in each plate is performed by reading optical density at 570 nm wavelength on a Molecular Devices UVmax microplate reader. Growth inhibition curves and 50% inhibitory concentrations are determined using Microsoft Excel.
(§8) Table 4 illustrates the inhibitory activity of compounds of the present invention against a representative kinase (raf) and the cytotoxicity of compounds of the present invention against a broad range of human tumor cell lines.

[4] = system: MIA PACA (human pancreatic carcinoma cell line); assay: Cell Based Efficacy (MTT Assay), MIA PACA; conditions: MIA PaCa-2, 72 hours with compound, 50% inhibitory concentration
Description: as §4
(§9) Cells are maintained in 75 cm^2 tissue culture flasks until ready for use. The cells are grown and plated for the assay in Dulbecco's modified Eagle's media containing 10% fetal bovine serum. For example, the following cell lines can be used: a) human foreskin fibroblasts (HFF), b) HT29 (human colon carcinoma cell line), c) MDA-MB-468 (human breast carcinoma cell line), d) RKO (human colon adenocarcinoma cell line), e) SW620 (human colon carcinoma cell line), f) A549 (human lung carcinoma cell line), and g) MIA PACA (human pancreatic carcinoma cell line). Cells are maintained at 37° C. in 10% CO2, 90% humidified air. Cells are plated in 96-well tissue culture plates at the densities listed below. 100 μL of cell suspension is added to each well of the 96-well plate except the top row of the plate which contains no cells and serves as a reference for the spectrophotometer.
MIA PACA 3000 cells/well
as §6, §7, §8

[5] = system: HT29 (human colon carcinoma cell line); assay: Cell Based Efficacy (MTT Assay), HT29; conditions: HT-29, 72 hours with compound, 50% inhibitory concentration
Description: as §4, §9, §6, §7, §8

[6] = system: MDA-MB-468 (human breast carcinoma cell line); assay: Cell Based Efficacy (MTT Assay), MDA-MB-468; conditions: 72 hours with compound, 50% inhibitory concentration
Description: as §4, §5, §6, §7, §8

[7] = system: PC-3 (prostate); assay: Cell Based Efficacy (MTT Assay), PC-3; conditions: Homo sapiens; 72 hours with compound; 50% inhibitory concentration
Description: as §4, §9, §6, §7, §8

[8] = system: SW620 xenograft; assay: Anti-tumor study in mice, SW620 xenograft; assay type: in vivo; conditions: 50 mg/kg
Description: as §1
SW620, available from the American Type Culture Collection, are grown in media consisting of RPMI 1640 with fetal bovine serum (10%), sodium pyruvate (1.0 mM) and glutamine (2.0 mM). Cells are incubated at 37° C. in 5% CO2. Cells are harvested with trypsin (0.05%), centrifuged, and resuspended in PBS:matrigel (1:1) at 1×10^7 cell/ml.
One of the tumor cell lines used is the colon line SW620. Tumors are initiated by subcutaneous injection of a cell suspension into the right flank of each mouse. The inoculum consists of 2×10^6 cells/mouse/ 0.2 ml in PBS:matrigel (1:1).
as §2, §3
Drug therapy begins when the average tumor size is approximately 40-50 mg, which usually is day 7 after implant. […] Drugs are administered at 3 or 4 dose-levels based upon the previously-determined maximally tolerated dose. […]

[9] = Table 3, read-out: Raf Kinase activity

T1 sequence (P04049 whole entry): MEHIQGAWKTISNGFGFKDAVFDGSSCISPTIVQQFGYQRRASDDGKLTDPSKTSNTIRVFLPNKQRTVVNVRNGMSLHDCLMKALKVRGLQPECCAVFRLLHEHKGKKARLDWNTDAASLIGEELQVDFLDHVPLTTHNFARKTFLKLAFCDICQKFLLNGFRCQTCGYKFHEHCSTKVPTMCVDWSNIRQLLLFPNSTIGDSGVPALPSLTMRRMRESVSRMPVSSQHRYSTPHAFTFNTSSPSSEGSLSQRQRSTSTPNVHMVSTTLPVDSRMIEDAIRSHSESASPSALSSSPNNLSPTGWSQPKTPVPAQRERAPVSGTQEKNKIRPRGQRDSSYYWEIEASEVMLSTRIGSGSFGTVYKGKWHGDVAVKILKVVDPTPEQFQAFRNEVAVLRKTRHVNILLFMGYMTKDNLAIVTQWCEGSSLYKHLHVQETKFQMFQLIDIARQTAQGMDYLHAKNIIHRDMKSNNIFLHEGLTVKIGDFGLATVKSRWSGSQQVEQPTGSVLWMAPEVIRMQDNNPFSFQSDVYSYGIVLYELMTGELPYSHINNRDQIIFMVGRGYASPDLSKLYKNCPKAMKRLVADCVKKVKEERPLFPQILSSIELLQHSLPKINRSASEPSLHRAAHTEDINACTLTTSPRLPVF

pIC50 ([2]; Table 4, read-out: Raf)	pIC50 [3]	pIC50 [4]	pIC50 [5]	pIC50 [6]	pIC50 [7]	Structure (SMILES)	Tumor Response % Inhibition @ mg/kg ([1]; 5 mg/kg)	pIC50 [2, 9]	Tumor Response % Inhibition @ mg/kg ([1]; 25 mg/kg)	Tumor Response % Inhibition @ mg/kg [8]
> 6.30	4.30 to 5.30	4.30 to 5.30	4.30 to 5.30	4.30 to 5.30	4.30 to 5.30	CCOc1cc(C=C2C(=O)Nc3ccc(C(=O)c4ccccc4)cc32)cc(Br)c1O [Example 8, 5-Benzoyl-3-(3-bromo-5-ethoxy-4-hydroxy-benzylidene)-1,3-dihydro-indol-2-one]		> 6.00		
5.30 to 6.30	4.30 to 5.30	4.30 to 5.30	4.30 to 5.30	4.30 to 5.30	4.30 to 5.30	NCc1ccc2c(c1)C(=Cc1cc(Br)c(O)c(Br)c1)C(=O)N2 [Example 25, 5-Aminomethyl-3-(3,5-dibromo-4-hydroxy-benzylidene)-1,3-dihydro-indol-2-one]		5.00 to 6.00		
						O=C1Nc2ccc(C(=O)CCl)cc2C1=Cc1cc(Br)c(O)c(Br)c1 [Example 84, 5-(2-Chloro-acetyl)-3-(3,5-dibromo-4-hydroxy-benzylidene)-1,3-dihydro-indol-2-one]		> 6.00	50%	
						CCN(CC)CC(=O)c1ccc2c(c1)C(=Cc1cc(Cl)c(O)c(Cl)c1)C(=O)N2 [Example 85, 3-(3,5-Dichloro-4-hydroxy-benzylidene)-5-(2-diethylamino-acetyl)-1,3-dihydro-indol-2-one]		> 6.00		40%
> 6.30	5.30 to 6.30	5.30 to 6.30	5.30 to 6.30	5.30 to 6.30	5.30 to 6.30	O=C1Nc2ccc3ncccc3c2C1=Cc1cc(Br)c(O)c(Br)c1 [Example 119, 1-(3,5-Dibromo-4-hydroxy-benzylidene)-1,3-dihydro-pyrrolo[3,2-f]quinolin-2-one]		> 6.00		
> 6.30	4.30 to 5.30	4.30 to 5.30	5.30 to 6.30	5.30 to 6.30	4.30 to 5.30	O=C1Nc2cc(Br)ccc2C1=Cc1cc(Cl)c(O)c(Cl)c1 [Example 133, 6-Bromo-3-(3,5-dichloro-4-hydroxy-benzylidene)-1,3-dihydro-indol-2-one]		> 6.00		

Structure (SMILES)	pIC50 ([2]; Table 4, read-out: Raf)	pIC50 [3]	pIC50 [4]	pIC50 [5]	pIC50 [6]	pIC50 [7]	Tumor Response % Inhibition @ mg/kg ([1]; 5 mg/kg)	pIC50 [2, 9]	Tumor Response % Inhibition @ mg/kg ([1]; 25 mg/kg)	Tumor Response % Inhibition @ mg/kg [8]
Cc1nc(-c2ccc3c(c2)C(=Cc2cc(Br)c(O)c(Br)c2)C(=O)N3)cs1 [Example 2, 3-(3,5-Dibromo-4-hydroxy-benzylidene)-5-(2-methyl-thiazol-4-yl)-1,3-dihydro-indol-2-one]	> 6.30	5.30 to 6.30	5.30 to 6.30	5.30 to 6.30	5.30 to 6.30	4.30 to 5.30	50%	> 6.00		
Cc1nc(-c2ccc3c(c2)C(=Cc2cc([N+](=O)[O-])c(O)c([N+](=O)[O-])c2)C(=O)N3)cs1 [Example 130, 3-(3,5-Dinitro-4-hydroxy-benzylidene)-5-(2-methyl-thiazol-4-yl)-1,3-dihydro-indol-2-one]	> 6.30	4.30 to 5.30	4.30 to 5.30	< 4.30	4.30 to 5.30	< 4.30		> 6.00		
